From US12281122B1, “PI3K inhibitors” (Cogent Biosciences, Inc., priority 2023, dated 2025)

How the values were obtained:
[1] = system: T47D (PI3Kα-H1047R) cell line; assay: HTRF phospho-AKT(S473) cell assay in T47D cells; type: cell-based, human
Method in brief: (§1)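 HTRF read-out of phospho-AKT(S473) in lysates gave IC50 values after 2 h compound exposure at 37° C. Dose series was 12 points at 1:3, topping at 5 μM for T47D and 10 μM for SKBR3. Only SKBR3 received 70 ng/ml PDGF-BB during the last 15 minutes.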

[2] = system: SKBR3 (PI3Kα-Wild Type) cell line; assay: HTRF phospho-AKT(S473) cell assay in SKBR3 cells; type: cell-based, human
Method in brief: as §1

[3] = Homo sapiens; T47D (PI3Kα-H1047R) cells, HTRF phospho-AKT(S473), 2 hours compound incubation
[4] = Homo sapiens, SK-BR-3; SKBR3 (PI3Kα-Wild Type) cells, HTRF phospho-AKT(S473), 2 hours compound incubation, PDGF-BB stimulated
[5] = Homo sapiens; HTRF phospho-AKT(S473), T47D (PI3Kα-H1047R) cells, 2 hours compound incubation
[6] = Homo sapiens, SK-BR-3; HTRF phospho-AKT(S473), SKBR3 (PI3Kα-Wild Type) cells, 2 hours compound incubation, PDGF-BB stimulated

Row | IC50 [1, 3] [µM] | IC50 [2, 4] [µM] | IC50 [1, 5] [µM] | IC50 [2, 6] [µM] | Compound
1 | < 0.25 | ≥ 5 |  |  | Cc1cc([C@@H](C)Nc2ccc(Cl)nc2C(=O)NS(C)(=O)=O)c2nc(N3C[C@H]4CC(c5ccn(C)n5)C[C@@H]4C3)n(C)c(=O)c2c1 (single isomer, unassigned) [Compound 425, 6-chloro-3-(((R)-1-(3,6-dimethyl-2-((3aS*,6aS*)-5-(1-methyl-1H-pyrazol-3-yl)hexahydrocyclopenta [c]pyrrol-2(1H)-yl)-4-oxo-3,4-dihydroquinazolin-8-yl)ethyl)amino)-N-(methylsulfonyl) picolinamide]
2 | < 0.25 | 1 to 5 |  |  | Cc1cc([C@@H](C)Nc2ccc(Cl)nc2C(=O)NS(C)(=O)=O)c2nc(N3CCC[C@@H](c4ccc(C)nc4)C3)n(C)c(=O)c2c1 (relative stereo) [Compound 238, 6-chloro-3-(((R)-1-(3,6-dimethyl-2-((R*)-3-(6-methylpyridin-3-yl)piperidin-1-yl)-4-oxo-3,4-dihydroquinazolin-8-yl)ethyl)amino)-N-(methylsulfonyl) picolinamide]
3 |  |  | < 0.25 | 1 to 5 | C[C@@H](Nc1ccc(Cl)nc1C(=O)NS(C)(=O)=O)c1cc(F)cc2c(=O)n(C)c(N3CC[C@@H](Oc4cnn(C)c4)C3)nc12 [Compound 560, 6-chloro-3-(((R)-1-(6-fluoro-3-methyl-2-((R)-3-((1-methyl-1H-pyrazol-4-yl)oxy)pyrrolidin-1-yl)-4-oxo-3,4-dihydroquinazolin-8-yl)ethyl)amino)-N-(methylsulfonyl) picolinamide]
4 |  |  | 0.5 to 1 | ≥ 5 | Cc1cc([C@@H](C)Nc2ccc(Cl)nc2C(=O)NS(C)(=O)=O)c2nc([C@H]3CCCN(c4nccc(C)n4)C3)n(C)c(=O)c2c1 (mixture of isomers) [Compound 756, 6-chloro-3-(((R)-1-(3,6-dimethyl-2-((RS)-1-(4-methylpyrimidin-2-yl)piperidin-3-yl)-4-oxo-3,4-dihydroquinazolin-8-yl)ethyl)amino)-N-(methylsulfonyl) picolinamide]
5 |  |  | 1 to 5 | ≥ 5 | Cc1cc([C@@H](C)Nc2ccc(Cl)nc2C(=O)NS(C)(=O)=O)c2nc(N3CC[C@@H](Oc4ccnnc4)C3)n(C)c(=O)c2c1 [Compound 710, 6-chloro-3-(((R)-1-(3,6-dimethyl-4-oxo-2-((R)-3-(pyridazin-4-yloxy)pyrrolidin-1-yl)-3,4-dihydroquinazolin-8-yl)ethyl)amino)-N-(methylsulfonyl) picolinamide]
6 | < 0.25 | ≥ 5 |  |  | Cc1cc([C@@H](C)Nc2ccc(Cl)nc2C(=O)NS(C)(=O)=O)c2nc(N3CCC4(CCC(O)CC4)CC3)n(C)c(=O)c2c1 [Compound 275, (R)-6-chloro-3-((1-(2-(9-hydroxy-3-azaspiro[5.5]undecan-3-yl)-3,6-dimethyl-4-oxo-3,4-dihydroquinazolin-8-yl)ethyl)amino)-N-(methylsulfonyl) picolinamide]
7 |  |  | 0.5 to 1 | ≥ 5 | Cc1cc([C@@H](C)Nc2ccc(Cl)nc2C(=O)NS(C)(=O)=O)c2nc(N3CC[C@H](c4cnc(C)nc4)C3)n(C)c(=O)c2c1 (relative stereo) [Compound 658, 6-chloro-3-(((R)-1-(3,6-dimethyl-2-((R*)-3-(2-methylpyrimidin-5-yl)pyrrolidin-1-yl)-4-oxo-3,4-dihydroquinazolin-8-yl)ethyl)amino)-N-(methylsulfonyl) picolinamide]
8 | < 0.25 | 1 to 5 |  |  | CC(=O)N1CCN(c2ncc(-c3nc4c([C@@H](C)Nc5ccc(Cl)nc5C(=O)NS(C)(=O)=O)cc(C)cc4c(=O)n3C)cc2F)CC1 [Compound 259, (R)-3-((1-(2-(6-(4-acetylpiperazin-1-yl)-5-fluoropyridin-3-yl)-3,6-dimethyl-4-oxo-3,4-dihydroquinazolin-8-yl)ethyl)amino)-6-chloro-N-(methylsulfonyl) picolinamide]
9 | < 0.25 | 1 to 5 |  |  | Cc1cc([C@@H](C)Nc2ccc(Cl)nc2C(=O)NS(C)(=O)=O)c2nc(N3CC[C@@H](Oc4cnn(CC(F)(F)F)c4)C3)n(C)c(=O)c2c1 [Compound 329, 6-chloro-3-(((R)-1-(3,6-dimethyl-4-oxo-2-((R)-3-((1-(2,2,2-trifluoroethyl)-1H-pyrazol-4-yl)oxy)pyrrolidin-1-yl)-3,4-dihydroquinazolin-8-yl)ethyl)amino)-N-(methylsulfonyl) picolinamide]
10 |  |  | 0.5 to 1 | ≥ 5 | Cc1cc([C@@H](C)Nc2ccc(Cl)nc2C(=O)NS(C)(=O)=O)c2nc(N3C[C@@H]4CC4(c4cnc(C)nc4)C3)n(C)c(=O)c2c1 (relative stereo) [Compound 752, 6-chloro-3-(((R)-1-(3,6-dimethyl-2-((1R*,5R*)-1-(2-methylpyrimidin-5-yl)-3-azabicyclo[3.1.0]hexan-3-yl)-4-oxo-3,4-dihydroquinazolin-8-yl)ethyl)amino)-N-(methylsulfonyl) picolinamide]
11 | 0.25 to 0.5 | 1 to 5 |  |  | CCS(=O)(=O)NC(=O)c1nc(Cl)ccc1N[C@H](C)c1cc(C)cc2c(=O)n(C)c(N3Cc4ccc(F)cc4C3)nc12 [Compound 110, (R)-6-chloro-N-(ethylsulfonyl)-3-((1-(2-(5-fluoroisoindolin-2-yl)-3,6-dimethyl-4-oxo-3,4-dihydroquinazolin-8-yl)ethyl)amino) picolinamide]
12 | 0.25 to 0.5 | ≥ 5 |  |  | Cc1cc([C@@H](C)Nc2ccc(Cl)nc2C(=O)NS(C)(=O)=O)c2nc(N3C[C@@H]4[C@H](C3)[C@H]4c3cnc(C)c(F)c3)n(C)c(=O)c2c1 [Compound 423, 6-chloro-3-(((R)-1-(2-((1R,5S,6S)-6-(5-fluoro-6-methylpyridin-3-yl)-3-azabicyclo[3.1.0]hexan-3-yl)-3,6-dimethyl-4-oxo-3,4-dihydroquinazolin-8-yl)ethyl)amino)-N-(methylsulfonyl) picolinamide]
13 | 0.25 to 0.5 | ≥ 5 |  |  | Cc1cc([C@@H](C)Nc2ccc(Cl)nc2C(=O)NS(C)(=O)=O)c2nc(N3CCC4(CCN(c5ccn(C)n5)CC4)CC3)n(C)c(=O)c2c1 [Compound 361, (R)-6-chloro-3-((1-(3,6-dimethyl-2-(9-(1-methyl-1H-pyrazol-3-yl)-3,9-diazaspiro[5.5]undecan-3-yl)-4-oxo-3,4-dihydroquinazolin-8-yl)ethyl)amino)-N-(methylsulfonyl) picolinamide]
14 |  |  | 0.25 to 0.5 | ≥ 5 | Cc1cc([C@@H](C)Nc2ccc(Cl)nc2C(=O)NS(C)(=O)=O)c2nc(N3C[C@H]4CC(n5cc(C)cn5)C[C@@H]4C3)n(C)c(=O)c2c1 (single isomer, unassigned) [Compound 676, 6-chloro-3-(((R)-1-(3,6-dimethyl-2-((3aS*,6aS*)-5-(4-methyl-1H-pyrazol-1-yl)hexahydrocyclopenta [c]pyrrol-2(1H)-yl)-4-oxo-3,4-dihydroquinazolin-8-yl)ethyl)amino)-N-(methylsulfonyl) picolinamide]
